Laboratory results reported in article PMC7690608, “Combination Therapy of High-Dose Rabeprazole Plus Metronomic Capecitabine in Advanced Gastro-Intestinal Cancer: A Randomized Phase II Trial” (Cancers, 2020).
Where two headings read alike, the source gives them in different places.

How the values were obtained:
[1] = test system: metastatic gastrointestinal (GI) cancer; assay: Randomized phase II trial: efficacy (3-months PFS, PFS, clinical benefit, OS; RECIST 1.1); type: in vivo, patients
Source text: In addition, patients had to be 18 years of age or older, to have adequate bone-marrow, liver, and renal function and to have an Eastern Cooperative Oncology Group (ECOG) performance status ≤2. Meanwhile, the presence of one of the following criteria excluded patients’ participation to the study protocol: GI tumors that can be treated with standard treatments, cardiovascular or CNS disease, previously untreated CNS metastases, pregnant or breast-feeding patients, organ dysfunctions that usually hinder the use of cytotoxic drugs, and/or substance abuse and any other psychological condition that may interfere with the evaluation of study results. All patients were randomized and treated at the Oncology Unit of Sant’Andrea University Hospital, Rome. Every cancer patient is commonly managed at our Institution by a multidisciplinary team, who provides for the starting and the following clinical evaluations.
This is a randomized phase II study designed to detect the advantage of adding rabeprazole to mCAP as palliative treatment for patients with metastatic GI cancer, as previously described. Eligible patients were randomly assigned 1:1 to capecitabine, 1500 mg/daily, continuously with or without rabeprazole 1.5 mg/kg bid, three days a week. The randomization was computer generated by a statistician not involved in data collection, who was called by phone at the time of assignment. The protocol was not interrupted until progression of disease, unacceptable toxicity or death occurrence. This study was designed with the primary endpoint of 3-months progression-free survival (PFS) rate. PFS was defined as the length of time from the first dose of study drug to the date of the first documented disease progression according to the Response Evaluation Criteria in Solid Tumors (RECIST), version 1.1, or death for any reason, with censoring at the date of the last contact for alive patients. Secondary endpoints included the evaluation of clinical benefit (CB), which reflects the proportion of patients with complete response (CR), partial response (PR) and stable disease (SD) and overall survival (OS). The crossover between treatment groups was not allowed before the final analysis of the primary end point. Safety was evaluated by considering overall incidence and severity of adverse events (AEs) as well as the seriousness and drug-relatedness of each event (CTCAE v.4.03). AEs with an onset during treatment, or within 28 days after the last dose of the study drug, were considered as having occurred during treatment. We grouped anemia, neutropenia, and thrombocytopenia in hematological toxicity; diarrhea, nausea, and vomiting in gastrointestinal toxicity. In the two protocol arms, plasma concentrations of capecitabine and its metabolites were determined at 2 h from the assumption of two tablet of capecitabine (1000 mg), corresponding to the tmax of the drug. Plasma concentrations of capecitabine and its metabolites, 5′-deoxy-5′-fluorouridine (5′-DFUR) and 5- fluorouracil (5-FU), were evaluated in order to assess the potential interaction between capecitabine and rabeprazole. Blood samples (7 mL) were collected in vacutainers containing ethylenediaminetetraacetic acid (EDTA) as anticoagulant, then centrifuged and the plasma samples were stored at −20 °C until analysis. […] Plasma samples, calibration standard samples and quality-control (QC) samples were analyzed using a high-performance liquid chromatography (HPLC) tandem mass spectrometry (LC/MS-MS) analytical method. […]

[2] = test system: early stage colorectal cancer; set-up: method as in PMID 26803708; details: cited from earlier work
[3] = set-up: species or system patients; details: in vivo
Procedure: This is a randomized phase II study designed to detect the advantage of adding rabeprazole to mCAP as palliative treatment for patients with metastatic GI cancer, as previously described. Eligible patients were randomly assigned 1:1 to capecitabine, 1500 mg/daily, continuously with or without rabeprazole 1.5 mg/kg bid, three days a week. The randomization was computer generated by a statistician not involved in data collection, who was called by phone at the time of assignment. The protocol was not interrupted until progression of disease, unacceptable toxicity or death occurrence. This study was designed with the primary endpoint of 3-months progression-free survival (PFS) rate. […] Safety was evaluated by considering overall incidence and severity of adverse events (AEs) as well as the seriousness and drug-relatedness of each event (CTCAE v.4.03). […] Plasma concentrations of capecitabine and its metabolites, 5′-deoxy-5′-fluorouridine (5′-DFUR) and 5- fluorouracil (5-FU), were evaluated in order to assess the potential interaction between capecitabine and rabeprazole. […] Plasma samples, calibration standard samples and quality-control (QC) samples were analyzed using a high-performance liquid chromatography (HPLC) tandem mass spectrometry (LC/MS-MS) analytical method. […]

[4] = test system: patients with metastatic GI cancer; assay: Randomized phase II trial: safety, adverse events (CTCAE v.4.03); details: in vivo
Procedure: This is a randomized phase II study designed to detect the advantage of adding rabeprazole to mCAP as palliative treatment for patients with metastatic GI cancer, as previously described. Eligible patients were randomly assigned 1:1 to capecitabine, 1500 mg/daily, continuously with or without rabeprazole 1.5 mg/kg bid, three days a week. The randomization was computer generated by a statistician not involved in data collection, who was called by phone at the time of assignment. The protocol was not interrupted until progression of disease, unacceptable toxicity or death occurrence. This study was designed with the primary endpoint of 3-months progression-free survival (PFS) rate. PFS was defined as the length of time from the first dose of study drug to the date of the first documented disease progression according to the Response Evaluation Criteria in Solid Tumors (RECIST), version 1.1, or death for any reason, with censoring at the date of the last contact for alive patients. Secondary endpoints included the evaluation of clinical benefit (CB), which reflects the proportion of patients with complete response (CR), partial response (PR) and stable disease (SD) and overall survival (OS). The crossover between treatment groups was not allowed before the final analysis of the primary end point. Safety was evaluated by considering overall incidence and severity of adverse events (AEs) as well as the seriousness and drug-relatedness of each event (CTCAE v.4.03). AEs with an onset during treatment, or within 28 days after the last dose of the study drug, were considered as having occurred during treatment. We grouped anemia, neutropenia, and thrombocytopenia in hematological toxicity; diarrhea, nausea, and vomiting in gastrointestinal toxicity. In the two protocol arms, plasma concentrations of capecitabine and its metabolites were determined at 2 h from the assumption of two tablet of capecitabine (1000 mg), corresponding to the tmax of the drug. Plasma concentrations of capecitabine and its metabolites, 5′-deoxy-5′-fluorouridine (5′-DFUR) and 5- fluorouracil (5-FU), were evaluated in order to assess the potential interaction between capecitabine and rabeprazole. Blood samples (7 mL) were collected in vacutainers containing ethylenediaminetetraacetic acid (EDTA) as anticoagulant, then centrifuged and the plasma samples were stored at −20 °C until analysis. Plasma samples were collected at the start of the study, after 4 and 8 weeks of treatment. Plasma samples, calibration standard samples and quality-control (QC) samples were analyzed using a high-performance liquid chromatography (HPLC) tandem mass spectrometry (LC/MS-MS) analytical method. Plasma concentrations were reported in µg/mL (mean values and standard deviation (SD)).
The study was designed to have 90% power to detect a hazard ratio for the 3-months PFS of 0.60 (a 40% reduction in risk) in the mCAP-rabeprazole group as compared with the mCAP group, with a one-sided type I error rate of 0.05. Given the treatment assignment ratio of 1:1, we calculated that 66 patients had to be enrolled in the study, and at least 60 events (progression disease) would have been required for the primary analysis. For PFS and OS, the stratified log-rank test was used independently at the 2-sided, 0.05 level of significance, and Kaplan–Meier estimates performed for the graphic representation of both findings. An exact logistic regression model was used to test for a difference in CB between treatments, with the model adjusted by the same factors used to stratify the primary analysis of PFS. Adverse events and laboratory abnormalities were summarized for all patients who received at least one dose of study drug. The χ^2–test and t-test for unpaired data were applied to compare frequencies and means, respectively. SPSS statistical software, Version 24 (SPSS Inc. Chicago, IL, USA) was used.

[5] = test system: tumor pH; set-up: method as in PMID 19876915; details: in vivo experiments; tumor pH shifts toward neutrality after treatment; cited from earlier work

CCCCCOC(=O)Nc1nc(=O)n([C@@H]2O[C@H](C)[C@@H](O)[C@H]2O)cc1F [mCAP, capecitabine]
median OS ([1]; Kaplan–Meier): 6.0 (95%CI 4.0–7.9) months | median PFS ([1]; Kaplan–Meier): 3.0 months | 3-year OS rate ([1]; human, in vivo): 12% | patients who reported a clinical benefit (CB: CR+PR+SD) ([1]; human, in vivo): 31% | patients who experienced a progression of the disease at the 3-months evaluation (primary end-point) ([1]; intention-to-treat, mCAP 1500 mg/daily with or without rabeprazole 1.5 mg/kg bid three days a week): 57% | Five-year recurrence-free survival ([2]; adjuvant capecitabine with concurrent PPIs consumption): 74% | Five-year recurrence-free survival ([2]; adjuvant capecitabine without concurrent PPIs consumption): 83% | HR for five-year recurrence-free survival ([2]; with vs. without concurrent PPIs, p = 0.03): 1.89 | plasma values in the pre-dose analysis [3]: below zero | Gastrointestinal G1, patients ([4]; human): 14% | Gastrointestinal G2, patients ([4]; human): 9% | Hand-foot syndrome G1, patients ([4]; human): 3% | Hand-foot syndrome G2, patients ([4]; human): 11% | Hematological toxicity G1, patients ([4]; human): 6% | Hematological toxicity G2, patients ([4]; human): 6% | Nausea ([4]; human): 1 n. | Neutropenia ([4]; human): 0 n. | adverse events of any grade, patients ([4]; human): 29% | severe adverse events [4]: no severe adverse event

O=c1[nH]cc(F)c(=O)[nH]1 [5-FU, 5-fluorouracil]
plasma values in the pre-dose analysis [3]: below zero

COc1ccc2nc([S@@+]([O-])Cc3ncc(C)c(OC)c3C)[nH]c2c1 [esomeprazole]
time for tumor pH to return to acidity after treatment discontinuation [5]: ≤ 48 h
